From ChEMBL document CHEMBL5512645, “A novel antimicrobial peptide with broad-spectrum and exceptional stability derived from the natural peptide Brevicidine” (Eur J Med Chem, 2024)
In brackets after ≈: the same amount, converted by molar mass. Activity calls are given as the source filed them. The calls are words filed in the database; no cut-off is given here. Bridge positions count the residues as written; N and C are the ends. Square brackets hold non-standard residues; d marks the D form. Peptide text beside a SMILES is read from it. * marks the point of attachment. ξ: configuration not given here. Hexanoyl(4ξ-Me) = CCC(C)CCC(=O)*; dOrn = NCCC[C@@H](N)C(=O)O; Orn = NCCC[C@H](N)C(=O)O

Tests used:
Erythrocyte = test: Hemolytic activity in mouse red blood cell assessed as hemolysis incubated for 1 hr; format: toxicity, cell-based
[1] = Retention time of the compound in mouse serum by RP-HPLC analysis; format: ADME, cell-free
Staphylococcus aureus [2] = test: Antibacterial activity against Staphylococcus aureus ATCC 25923 pretreated with 2.5% mouse serum followed by compound addition and measured after 1 hr by broth microdilution method (reference value: 8 microM); format: functional
Staphylococcus aureus [3] = test: Antibiofilm activity against Staphylococcus aureus ATCC 25923 assessed as biofilm eradication at 1/2 to 4 times MIC measured after 24 hrs by crystal violet staining based analysis; format: functional, organism-based
Staphylococcus aureus [4] = test: Antibacterial activity against Staphylococcus aureus ATCC 25923 at sub-MIC measured after 20 days; format: functional, organism-based; conditions: time 20.0 day
Pseudomonas aeruginosa [5] = test: Antimicrobial activity against Pseudomonas aeruginosa ATCC 27853 assessed as reduction in microbial growth at 2 times MIC measured for 18 hrs in presence of 256 microg/ml LPS; format: functional, organism-based
Cell membrane [6] = test: Induction of cytoplasmic membrane depolarization in Pseudomonas aeruginosa ATCC 27853 assessed as increase in fluorescence intensity measured upto 12 min by DiSC3-5 dye based fluorescence method; format: cell membranes
Staphylococcus aureus [7] = test: Induction of morphological changes in Staphylococcus aureus ATCC 25923 assessed as adhesion at 2 times MIC measured after 0.5 hrs by SEM based analysis; format: functional, organism-based
[8] = Toxicity in male BALB/c mouse assessed as inflammatory cell infiltration in liver at 46.88 mg/kg, ip administered as single dose by H and E staining based analysis; format: organism-based; conditions: in vivo
[9] = Toxicity in male BALB/c mouse assessed as inflammatory cell infiltration in kidney at 46.88 mg/kg, ip administered as single dose by H and E staining based analysis; format: organism-based; conditions: in vivo
[10] = Toxicity in male BALB/c mouse assessed as hemorrhage in kidney at 46.88 mg/kg, ip administered as single dose by H and E staining based analysis; format: organism-based; conditions: in vivo
Staphylococcus aureus [11] = test: In vivo antibacterial activity against Staphylococcus aureus ATCC 25923 infected in BALB/c mouse model assessed as reduction in bacterial count in kidney at 10 mg/kg, ip preadministered with compound for 1 hr followed by bacterial infection and measured after 6 hrs […]; format: functional, organism-based; conditions: time 7.0 hrs
Staphylococcus aureus [12] = test: In vivo antibacterial activity against Staphylococcus aureus ATCC 25923 infected in BALB/c mouse model assessed as amelioration of pathological changes in lung at 5 to 10 mg/kg, ip measured after 7 hrs by H and E staining based analysis; format: functional, organism-based; conditions: dose 5-10 mg/kg
Staphylococcus aureus [13] = test: In vivo antibacterial activity against Staphylococcus aureus ATCC 25923 infected in BALB/c mouse model assessed as amelioration of pathological changes in spleen at 5 to 10 mg/kg, ip measured after 7 hrs by H and E staining based analysis; format: functional, organism-based; conditions: dose 5-10 mg/kg
Staphylococcus aureus [14] = test: In vivo antibacterial activity against Staphylococcus aureus ATCC 25923 infected in BALB/c mouse model assessed as amelioration of pathological changes in kidney at 5 to 10 mg/kg, ip measured after 7 hrs by H and E staining based analysis; format: functional, organism-based; conditions: dose 5-10 mg/kg
Staphylococcus aureus [15] = test: Antibacterial activity against Staphylococcus aureus ATCC 25923 assessed as fold increase in MIC pretreated with MgCl2 followed by compound addition and measured after 2 hrs by broth microdilution method; format: functional
Pseudomonas aeruginosa [16] = test: Antibacterial activity against Pseudomonas aeruginosa ATCC 27853 assessed as fold increase in MIC pretreated with KCl followed by compound addition and measured after 2 hrs by broth microdilution method; format: functional
Pseudomonas aeruginosa [17] = test: Antibacterial activity against Pseudomonas aeruginosa ATCC 27853 assessed as fold increase in MIC pretreated with MgCl2 followed by compound addition and measured after 2 hrs by broth microdilution method; format: functional
Pseudomonas aeruginosa [18] = test: Antibacterial activity against Pseudomonas aeruginosa ATCC 27853 assessed as fold increase in MIC pretreated with ZnCl2 followed by compound addition and measured after 2 hrs by broth microdilution method; format: functional
Staphylococcus aureus [19] = test: Antibacterial activity against Staphylococcus aureus ATCC 25923 pretreated with 20% mouse serum followed by compound addition and measured after 1 hr by broth microdilution method (reference value: 64 microM); format: functional
Staphylococcus aureus [20] = test: Antibacterial activity against Staphylococcus aureus ATCC 25923 pretreated with Mgcl2 followed by compound addition and measured after 2 hrs by broth microdilution method (reference value: 64 microM); format: functional
Staphylococcus aureus [21] = test: Antibacterial activity against Staphylococcus aureus ATCC 25923 pretreated with Zncl2 followed by compound addition and measured after 2 hrs by broth microdilution method (reference value: 64 microM); format: functional
Pseudomonas aeruginosa [22] = test: Bactericidal activity against Pseudomonas aeruginosa ATCC 27853 assessed as assessed as eradication of bacterial cells at 2 to 4 times MIC measured after 0.5 hr by time killing analysis; format: functional, organism-based
Cell membrane [23] = test: Induction of outer membrane permeabilization in Pseudomonas aeruginosa ATCC 27853 assessed increase in fluorescence intensity at 1/2 MIC measured upto 12 mins by fluorescence based NPN uptake assay; format: cell membranes
Cell membrane [24] = test: Induction of cytoplasmic membrane depolarization in Pseudomonas aeruginosa ATCC 27853 assessed as increase in fluorescence intensity at 2 to 4 times MIC measured upto 12 min by DiSC3-5 dye based fluorescence method; format: cell membranes
Pseudomonas aeruginosa [25] = test: Induction of morphological changes in Pseudomonas aeruginosa ATCC 27853 assessed as pore formation on bacterial surface at 2 times MIC measured after 0.5 hrs by SEM based analysis; format: functional, organism-based
Staphylococcus aureus [26] = test: Induction of morphological changes in Staphylococcus aureus ATCC 25923 assessed as membrane rupture at 2 times MIC measured after 0.5 hrs by SEM based analysis; format: functional, organism-based
Staphylococcus aureus [27] = test: Antibacterial activity against Staphylococcus aureus ATCC 25923 assessed as fold increase in MIC pretreated with 2.5 to 20% mouse serum followed by compound addition and measured after 6 hr by broth microdilution method; format: functional
Staphylococcus aureus [28] = test: Antibacterial activity against Staphylococcus aureus ATCC 25923 pretreated with 2.5% mouse serum followed by compound addition and measured after 1 hrs by broth microdilution method (reference value: 16 microM); format: functional, organism-based
Staphylococcus aureus [29] = test: Antibacterial activity against Staphylococcus aureus ATCC 25923 pretreated with 10% mouse serum followed by compound addition and measured after 1 hr by broth microdilution method (reference value: 16 microM); format: functional, organism-based
Staphylococcus aureus [30] = test: Antibacterial activity against Staphylococcus aureus ATCC 25923 pretreated with Na-cl followed by compound addition and measured after 2 hrs by broth microdilution method (reference value: 16 microM); format: functional, organism-based
Staphylococcus aureus [31] = test: Antibacterial activity against Staphylococcus aureus ATCC 25923 pretreated with Mgcl2 followed by compound addition and measured after 2 hrs by broth microdilution method (reference value: 16 microM); format: functional, organism-based
Staphylococcus aureus [32] = test: Antibacterial activity against Staphylococcus aureus ATCC 25923 pretreated with FeCl3 followed by compound addition and measured after 2 hrs by broth microdilution method (reference value: 16 microM); format: functional, organism-based
Staphylococcus aureus [33] = test: Antibacterial activity against Staphylococcus aureus ATCC 25923 at sub-MIC measured after 6 days; format: functional, organism-based; conditions: time 6.0 day
Cell membrane [34] = test: Induction of outer membrane permeabilization in Pseudomonas aeruginosa ATCC 27853 assessed increase in fluorescence intensity at 1/2 to 4 times MIC by fluorescence based NPN uptake assay; format: cell membranes; conditions: time <= 12.0 min, TDE = time-dependent effect

Compound: CCCCCCCCCC(=O)N[C@H](CCCN)C(=O)N[C@H](Cc1ccc(O)cc1)C(=O)N[C@H](Cc1c[nH]c2ccccc12)C(=O)N[C@H](CCCN)C(=O)N[C@@H](CCCN)C(=O)NCC(=O)N[C@H](CCCN)C(=O)N[C@@H](Cc1c[nH]c2ccccc12)C(=O)N[C@H](C(=O)N[C@H](C(=O)NCC(=O)N[C@@H](CO)C(=O)O)[C@@H](C)CC)[C@@H](C)O
- MHC (Erythrocyte): 128 µM
- Retention_time [1]: 15.312 min
- MIC (Staphylococcus aureus [2]): 16 µM (≈ 25.3 µg/mL)
- Activity (Staphylococcus aureus [3]): Active
- Activity (Staphylococcus aureus [4]): Active
- Activity (Pseudomonas aeruginosa [5]): inactive
- Activity (Cell membrane [6]): Dose-Dependent Effect
- Activity (Staphylococcus aureus [7]): Active
- Activity [8]: Toxic
- Activity [9]: Toxic
- Activity [10]: Toxic
- Activity (Staphylococcus aureus [11]): Active
- Activity (Staphylococcus aureus [12]): Active
- Activity (Staphylococcus aureus [13]): Active
- Activity (Staphylococcus aureus [14]): Active
- fold change (FC) (Staphylococcus aureus [15]): 2
- fold change (FC) (Pseudomonas aeruginosa [16]): 8
- fold change (FC) (Pseudomonas aeruginosa [17]): 8
- fold change (FC) (Pseudomonas aeruginosa [18]): 8

Compound: CCC(C)CCC(=O)N[C@H](CC(N)=O)C(=O)N[C@H](Cc1ccc(O)cc1)C(=O)N[C@H](Cc1c[nH]c2ccccc12)C(=O)N[C@H](CCCN)C(=O)N[C@@H](CCCN)C(=O)NCC(=O)N[C@H](CCCN)C(=O)N[C@@H](Cc1c[nH]c2ccccc12)C(=O)N[C@@H]1C(=O)N[C@@H]([C@@H](C)CC)C(=O)NCC(=O)N[C@@H](CO)C(=O)O[C@@H]1C (some centres not stated) ({Hexanoyl(4ξ-Me)}-[dN][dY][dW][dOrn][Orn]G[dOrn]WTIGS; ester 9-C)
- MHC (Erythrocyte): 128 µM
- Retention_time [1]: 14.82 min
- MIC (Staphylococcus aureus [19]): 128 µM (≈ 195 µg/mL)
- MIC (Staphylococcus aureus [20]): 64 µM (≈ 97.3 µg/mL)
- MIC (Staphylococcus aureus [21]): 64 µM (≈ 97.3 µg/mL)
- Activity (Pseudomonas aeruginosa [22]): Active
- Activity (Staphylococcus aureus [4]): Active
- Activity (Cell membrane [23]): inactive
- Activity (Cell membrane [24]): Active
- Activity (Pseudomonas aeruginosa [25]): Active
- Activity (Staphylococcus aureus [26]): Active
- fold change (FC) (Staphylococcus aureus [27]): 2
- fold change (FC) (Pseudomonas aeruginosa [16]): 4
- fold change (FC) (Pseudomonas aeruginosa [17]): 4
- fold change (FC) (Pseudomonas aeruginosa [18]): 2

Compound: POLYMYXIN B
- MIC (Staphylococcus aureus [28]): 16 µM
- MIC (Staphylococcus aureus [29]): 16 µM
- MIC (Staphylococcus aureus [30]): 16 µM
- MIC (Staphylococcus aureus [31]): 8 µM
- MIC (Staphylococcus aureus [32]): 8 µM
- Activity (Staphylococcus aureus [33]): inactive
- Activity (Pseudomonas aeruginosa [5]): inactive
- Activity (Cell membrane [34]): Tde
- Activity (Pseudomonas aeruginosa [25]): Active
- Activity (Staphylococcus aureus [11]): Active
- Activity (Staphylococcus aureus [12]): Active
- Activity (Staphylococcus aureus [13]): Active
- Activity (Staphylococcus aureus [14]): Active
